Earlier results on 1 molecule are cited in paper PMC6182381, “Population Pharmacokinetics and Exposure-Response Relationships of Naldemedine” (Pharmaceutical Research, 2018).

Each structure is given as a SMILES string.

Details of this data set: method as in earlier work. The following applies: cited from earlier work.

Turning to `N=C(N)c1ccccc1` [Benzamidine], the “metabolite excreted in feces” value was ~20 % of the administered dose of naldemedine and the “metabolite excreted in urine” value is recorded as “approximately 32 % of the administered dose of naldemedine”.
